What all share (assay type): cell-based
Experiment [1] has as its system Staphylococcus aureus. The experiment in a line: Antibiotic susceptibility testing (colour of media), spiked milk. The following applies: bacteria sample 5c. The protocol:
Tables 36 to 38 which follow show further examples of antibiotic susceptibility testing performed in accordance with the present invention. Table 36, antibiotic susceptibility testing of Staphylococcus aureus in Mueller Hinton and Tryptic Soy Broth at pre-incubation and at between 15-24 h. Tables 37 and 38, antimicrobial susceptibility testing of Streptococcus uberis and E. coli with the addition of gram negative specific antibiotic aztreonam. Tables 38 to 49 show further examples of antibiotic susceptibility testing and the outcomes are aligned with the described inventions.

The subject of experiment [2] is Streptococcus uberis. The experiment in a line: Group D Streptococci identification, esculin/ferric citrate in TSB (blackening = growth), bacteria in milk. As to conditions: TSB containing 0.5% esculin and 0.25% ferric citrate + 80 uL spiked milk; 100 ug/ml aztreonam and/or 0.5 mg/mL phenol red. Here is the method:
By way of illustration, the same experiment was conducted as above, only this time using clinical milk samples obtained from a bovine animal suspect of being infected with mastitis.
However, Applicant has discovered that increased amounts of esculin and ferric citrate may be used in milk derived clinical samples. For example, at concentrations of at least 2% esculin and 1% ferric citrate, the growth of Streptococcus uberis is not inhibited.
Note, in the experiments above, the clinical sample tested was milk obtained from a bovine animal suspected of being infected by mastitis. If a non-milk clinical sample were to be tested, then inclusion of a stabilizing agent (e.g. milk in the form of a liquid or powder) would be required in order to suppress the growth inhibitory effect of esculin and ferric citrate at the higher concentrations used according to this invention.
Applicant further discovered that TSB containing 0.5% esculin and 0.25% ferric citrate and 80 uL of spiked Streptococcus uberis milk sample which also contained 100 ug/ml aztreonam concentration (antibiotic which has activity against many gram-bacteria such as E. coli) and/or in combination with 0.5 mg/mL phenol red led to easy detectable colour changes. No inhibition of Streptococcus uberis due to phenol red or aztreonam was detected.

In experiment [3] the test system is Streptococcus uberis. Kind of experiment: Colour change of enrichment media with pH indicator, bacteria in milk (stabilizing agent). The following applies: excess concentration (Table 4e, 0.04%) in presence of milk; all inoculums investigated. An excerpt: The present invention overcomes these limitations through inclusion of one or more stabilizing agents which suppresses the potential inhibitory effect of the colour based pH indicator. As such, increased concentrations of the colour based pH indicator (e.g. phenol red) may be used in the test, thereby achieving stability in the colour change associated with bacteria growth. An example of a stabilizing agent according to the present invention is milk.
In this Example, liquid culture media is used which allows early and easy identification of susceptible antimicrobials to support decision of antimicrobial selection to treat bacterial infections. It also allows the detection of bacteria such as gram+ and/or gram-bacteria in clinical samples are present and/or allows estimation of the inoculum from kinetic analyses of colour change. The base of this liquid culture medium is a general purpose liquid enrichment medium for example tryptic soy broth (Soybean-Casein Digest Medium) but could also be Mueller Hinton broth. This TSB media has excess concentration of a pH indicator such as phenol red and/or bromocresol purple and milk. […] Colorimetric analyses can performed by the naked eye or by an optical reader for example via CCD camera chip or photo diode. […]

Setting [4] is: T = 0 hours (pre incubation), drug 0.01 μg/ml, Mueller Hinton (70 ul composition 26).
Setting [5] is: T = 0 hours (pre incubation), drug 0.05 μg/ml, Mueller Hinton (70 ul composition 26).
Where [6] appears, read: T = 0 hours (pre incubation), drug 0.1 μg/ml, Mueller Hinton (70 ul composition 26).
Where [7] appears, read: T = 0 hours (pre incubation), drug 0.5 μg/ml, Mueller Hinton (70 ul composition 26).
Setting [8] is: T = 0 hours (pre incubation), drug 1 μg/ml, Mueller Hinton (70 ul composition 26).
The mark [9] stands for this setting: T = 0 hours (pre incubation), drug 5 μg/ml, Mueller Hinton (70 ul composition 26).
[10] abbreviates: T = 0 hours (pre incubation), drug 10 μg/ml, Mueller Hinton (70 ul composition 26).
[11] abbreviates: T = 0 hours (pre incubation), drug 50 μg/ml, Mueller Hinton (70 ul composition 26).
Where [12] appears, read: T = 0 hours (pre incubation), drug 100 μg/ml, Mueller Hinton (70 ul composition 26).
Where [13] appears, read: T = 0 hours (pre incubation), drug 500 μg/ml, Mueller Hinton (70 ul composition 26).
The mark [14] stands for this setting: T = 15-24 h at 35° C., drug 0.01 μg/ml, Mueller Hinton (70 ul composition 26).
The mark [15] stands for this setting: T = 15-24 h at 35° C., drug 0.05 μg/ml, Mueller Hinton (70 ul composition 26).
Setting [16] is: T = 15-24 h at 35° C., drug 0.1 μg/ml, Mueller Hinton (70 ul composition 26).
Setting [17] is: T = 15-24 h at 35° C., drug 0.5 μg/ml, Mueller Hinton (70 ul composition 26).
Setting [18] is: T = 15-24 h at 35° C., drug 1 μg/ml, Mueller Hinton (70 ul composition 26).
Setting [19] is: T = 15-24 h at 35° C., drug 5 μg/ml, Mueller Hinton (70 ul composition 26).
Where [20] appears, read: T = 15-24 h at 35° C., drug 10 μg/ml, Mueller Hinton (70 ul composition 26).
[21] abbreviates: T = 15-24 h at 35° C., drug 50 μg/ml, Mueller Hinton (70 ul composition 26).
Where [22] appears, read: T = 15-24 h at 35° C., drug 100 μg/ml, Mueller Hinton (70 ul composition 26).
The mark [23] stands for this setting: T = 15-24 h at 35° C., drug 500 μg/ml, Mueller Hinton (70 ul composition 26).

Consider `CC1=C(C(=O)O)N2C(=O)[C@@H](NC(=O)[C@H](N)c3ccccc3)[C@H]2SC1` [Cephalexin], for which the Colour of media result in experiment [1] (setting [4]), in experiment [1] (setting [5]), in experiment [1] (setting [6]), in experiment [1] (setting [7]), in experiment [1] (setting [8]) and in experiment [1] (setting [9]) was “red” in each case. Also, the Colour of media entry is “red” in experiment [1] (setting [10]); “red” in experiment [1] (setting [11]); “red” in experiment [1] (setting [12]); “red” in experiment [1] (setting [13]); “yellow” in experiment [1] (setting [14]); “yellow” in experiment [1] (setting [15]). For the same molecule, the Colour of media result in experiment [1] (setting [16]) is listed as “yellow”; in experiment [1] (setting [17]), “yellow”; in experiment [1] (setting [18]), “red”; in experiment [1] (setting [19]) it was “red”; in experiment [1] (setting [20]), “red”; in experiment [1] (setting [21]), “red”. Besides, the Colour of media entry in experiment [1] (setting [22]) and in experiment [1] (setting [23]) was “red” each time.
`O=S1(=O)OC(c2ccc(O)cc2)(c2ccc(O)cc2)c2ccccc21` [phenol red]: the “Inhibition of Streptococcus uberis” value in experiment [2] was “No inhibition”.
For the molecule `CN[C@@H]1[C@H](O[C@H]2[C@H](O[C@H]3[C@H](O)[C@@H](O)[C@H](NC(=N)N)[C@@H](O)[C@@H]3NC(=N)N)O[C@@H](C)[C@]2(O)CO)O[C@@H](CO)[C@H](O)[C@H]1O` [Dihydrostreptomycin], the Colour of media entry in experiment [1] (T = 0 hours (pre incubation), drug 0.01 μg/ml, Tryptic Soy (70 ul composition 2c)) was “red”; in experiment [1] (T = 0 hours (pre incubation), drug 0.05 μg/ml, Tryptic Soy (70 ul composition 2c)), “red”; in experiment [1] (T = 0 hours (pre incubation), drug 0.1 μg/ml, Tryptic Soy (70 ul composition 2c)), “red”; in experiment [1] (T = 0 hours (pre incubation), drug 0.5 μg/ml, Tryptic Soy (70 ul composition 2c)) it was “red”; in experiment [1] (T = 0 hours (pre incubation), drug 1 μg/ml, Tryptic Soy (70 ul composition 2c)) it was “red”; in experiment [1] (T = 0 hours (pre incubation), drug 5 μg/ml, Tryptic Soy (70 ul composition 2c)), “red”. Moreover, the Colour of media entry is listed as “red” in experiment [1] (T = 0 hours (pre incubation), drug 10 μg/ml, Tryptic Soy (70 ul composition 2c)); “red” in experiment [1] (T = 0 hours (pre incubation), drug 50 μg/ml, Tryptic Soy (70 ul composition 2c)); “red” in experiment [1] (T = 0 hours (pre incubation), drug 100 μg/ml, Tryptic Soy (70 ul composition 2c)); “red” in experiment [1] (T = 0 hours (pre incubation), drug 500 μg/ml, Tryptic Soy (70 ul composition 2c)); “yellow” in experiment [1] (T = 15-24 h at 35° C., drug 0.01 μg/ml, Tryptic Soy (70 ul composition 2c)); “yellow” in experiment [1] (T = 15-24 h at 35° C., drug 0.05 μg/ml, Tryptic Soy (70 ul composition 2c)). The Colour of media result is listed as “yellow” in experiment [1] (T = 15-24 h at 35° C., drug 0.1 μg/ml, Tryptic Soy (70 ul composition 2c)); “yellow” in experiment [1] (T = 15-24 h at 35° C., drug 0.5 μg/ml, Tryptic Soy (70 ul composition 2c)); “yellow” in experiment [1] (T = 15-24 h at 35° C., drug 1 μg/ml, Tryptic Soy (70 ul composition 2c)); “yellow” in experiment [1] (T = 15-24 h at 35° C., drug 5 μg/ml, Tryptic Soy (70 ul composition 2c)); “yellow” in experiment [1] (T = 15-24 h at 35° C., drug 10 μg/ml, Tryptic Soy (70 ul composition 2c)); “yellow” in experiment [1] (T = 15-24 h at 35° C., drug 50 μg/ml, Tryptic Soy (70 ul composition 2c)). Moreover, the Colour of media entry in experiment [1] (T = 15-24 h at 35° C., drug 100 μg/ml, Tryptic Soy (70 ul composition 2c)) is recorded as “red”; in experiment [1] (T = 15-24 h at 35° C., drug 500 μg/ml, Tryptic Soy (70 ul composition 2c)), “red”.
With `NC[C@@H]1O[C@H](O[C@H]2[C@@H](O)[C@H](O[C@@H]3[C@@H](O)[C@H](N)C[C@H](N)[C@H]3O[C@H]3O[C@H](CN)[C@@H](O)[C@H](O)[C@H]3N)O[C@@H]2CO)[C@H](N)[C@@H](O)[C@@H]1O` [Neomycin], the Colour of media entry in experiment [1] (setting [4]), in experiment [1] (setting [5]), in experiment [1] (setting [6]), in experiment [1] (setting [7]), in experiment [1] (setting [8]) and in experiment [1] (setting [9]) was “red” in each case. The Colour of media entry in experiment [1] (setting [10]) is “red”; in experiment [1] (setting [11]), “red”; in experiment [1] (setting [12]), “red”; in experiment [1] (setting [13]), “red”; in experiment [1] (setting [14]), “yellow”; in experiment [1] (setting [15]), “yellow”. The Colour of media entry was “yellow” in experiment [1] (setting [16]); “yellow” in experiment [1] (setting [17]); “yellow” in experiment [1] (setting [18]); “red” in experiment [1] (setting [19]); “red” in experiment [1] (setting [20]); “red” in experiment [1] (setting [21]). Moreover, the Colour of media result in experiment [1] (setting [22]) and in experiment [1] (setting [23]) was “red” throughout.
Take `Cc1cc(C2(c3cc(C)c(O)c(Br)c3)OS(=O)(=O)c3ccccc32)cc(Br)c1O` [bromocresol purple]: in experiment [3], the Growth inhibition entry is “does not inhibit growth”.

The values above are taken from US10829796B2, “Bacteria identification and antimicrobial susceptibility test” (priority 2015, dated 2020).
